Assay results taken from patent publication US20060068457A1, “Substrates for tafi (a)” (priority 2002, published 2006).

Key:
[1] = target: T1, carboxypeptidase B (Homo sapiens, UniProt P15086); test: Splitting of thiaarginine and thialysine substrates by carboxypeptidase B; format: biochemical; settings: substrate final concentration 174 μM
T1 sequence (P15086 111-417): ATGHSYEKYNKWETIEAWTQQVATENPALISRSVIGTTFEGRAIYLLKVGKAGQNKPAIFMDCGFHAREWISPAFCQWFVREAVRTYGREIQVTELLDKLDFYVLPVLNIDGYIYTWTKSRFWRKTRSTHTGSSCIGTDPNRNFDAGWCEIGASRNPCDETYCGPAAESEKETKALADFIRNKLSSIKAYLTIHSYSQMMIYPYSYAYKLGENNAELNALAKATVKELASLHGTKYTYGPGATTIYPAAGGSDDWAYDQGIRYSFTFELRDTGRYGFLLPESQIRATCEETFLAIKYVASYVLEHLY
Description: The thiaarginine derivatives of the following formulas A and B [drawing 2] have been described as substrates for carboxypeptidase B (Bull. Korean. Chem. Soc. 1998, 19(2), 189-193). […] Detection of CPB by means of compound A is carried out according to the following FIG. 1. [drawing]
(§1) • measure for 10 min at RT Results: • Splitting of thiaarginine and thialysine substrates (final concentration 174 μM) by TAFIa (final concentration 17 μg/ml) • in brackets the value for carboxypeptidase B • Substances of comparison A and B from Bull. Korean. Chem. Soc. 1998, 19(2), 189-193
(§2) ΔE=Extinction variation at 405 nm

[2] = target: T2, TAFIa (Homo sapiens, UniProt Q96IY4); test: Splitting of thiaarginine and thialysine substrates by TAFIa (DTNB chromogenic enzyme assay); format: biochemical; settings: substrate final concentration 174 μM, TAFIa final concentration 17 μg/ml, RT, 10 min
T2 construct: purchased Enzyme Research Laboratory
T2 sequence (Q96IY4 115-423): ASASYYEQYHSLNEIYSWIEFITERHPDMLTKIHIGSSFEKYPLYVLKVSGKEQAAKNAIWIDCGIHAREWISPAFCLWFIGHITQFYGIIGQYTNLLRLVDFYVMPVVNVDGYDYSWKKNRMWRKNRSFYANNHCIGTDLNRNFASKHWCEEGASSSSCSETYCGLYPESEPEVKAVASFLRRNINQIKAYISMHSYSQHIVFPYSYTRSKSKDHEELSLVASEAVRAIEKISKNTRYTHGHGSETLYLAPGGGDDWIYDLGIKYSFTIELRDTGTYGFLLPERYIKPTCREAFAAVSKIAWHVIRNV
Description: In a first step, the substrate is hydrolyzed by TAFIa in such a way that a thioamino acid (thiaarginine or thialysine) is released. These instable intermediates are rapidly decomposed into 2-mercaptoethylguanidine or […], respectively. These mercapto compounds react with Ellman's reagent (5,5′-dithio-bis-(2-nitrobenzoic acid)), thereby releasing the strongly yellow 3-carboxy-4-nitrothiophenol that can be measured using a spectrophotometer at 405-412 nm. The free thiol content measured is directly proportional to the quantity of substrate hydrolyzed by TAFIa and thereby allows a quantitative analysis of the enzyme activity.
Enzyme assay: The enzyme activity is measured at room temperature by using a 10 mM substrate stock solution in DMSO. TAFI of human origin can be obtained in a stock solution of 360 μg/ml from Enzyme Research Laboratory or over blood plasma. Activation of TAFI to TAFIa occurred with thrombin (2.7 U/ml), the activation of which was produced with 30 μg of thrombomodulin. Excessive thrombin activity was eliminated by adding the synthetic inhibitor NAPAP. The measurement was performed on microtiter plates.
The absorption increase at 405-412 nm was recorded for 10 minutes.
in buffer (20 mM HEPES, 5 mM CaCl2, 0.01% Tween 80; pH 7.4) • incubate for 5 min at 25° C.
as §1, §2

Row | Molecule | ΔE/min (extinction variation at 405 nm), value in brackets for carboxypeptidase B [1] | ΔE/min (extinction variation at 405 nm), splitting by TAFIa [2]
1 | Cl.NC(N)=NCCSC(NC(=O)[C@H](CCCCNC(=O)OCc1ccccc1)NC(=O)c1ccccc1)C(=O)O (stereo partly drawn) [No. 4269, benzoyl-(L)-lysyl-(E-benzyloxycarbonyl)-α-(D, L)-(2-guanidinoethylthio)-glycine hydrochloride salt] | (0.018) | 0.108
2 | Boc-F-K(Boc)-G(GUS)-OH × HCl [No. 4298] | (0.034) | 0.043
3 | Boc-K(Tos)-G(GUS)-OH × HCl [No. 4273] | (0.048) | 0.014
4 | Boc-K(Z)-G(GUS)-OH × TFA [No. 4275] | (0.028) | 0.041
5 | Bz-P-K(Boc)-G(GUS)-OH × TFA [No. 4300] | (0.072) | 0.012

Now from value to molecule:

Row | ΔE/min (extinction variation at 405 nm), value in brackets for carboxypeptidase B [1] | ΔE/min (extinction variation at 405 nm), splitting by TAFIa [2] | Molecule
6 | – | 0.055 | NCCCSC(NC(=O)[C@H](CCCCNC(=O)OCc1ccccc1)NC(=O)c1ccccc1)C(=O)O.O=C(O)C(F)(F)F (stereo partly drawn) [No. 4339, benzoyl-(L)-lysyl-(F-benzyloxycarbonyl)-α-(D,L)-(3-aminopropylthio)-glycine trifluoracetic acid salt]
7 | – | 0.054 | Boc-K(Z)-G(α-SPrA)-OH × TFA [No. 4341]
8 | – | 0.034 | Bz-V-G(GUS)-OH × TFA [No. 4334]
9 | – | 0.053 | Bz-V-G(α-SPrA)-OH × TFA [No. 4336]
10 | (0.059) | 0.042 | Z-A-K(Boc)-G(GUS)-OH × HCl [No. 4302]
